Results: patent publication US20060062758A1, “Tight junction modulator peptide PN159 for enhanced mucosal delivery of therapeutic compounds” (Nastech Pharmaceutical Comapny Inc., priority 2004, published 2006)

Tests used:
[1] = Permeation kinetics across the in vitro epithelial tissue model; conditions: human, pH 5, Papp; for Papp at 120 min, 40 mg/mL: galantamine 40 mg/mL pH 5.0, calcitonin 1 mg/mL pH 3.5, PTH1-34 1 mg/mL pH 4.5
Experimental: (§1) The EpiAirway™ system was developed by MatTek Corp (Ashland, Mass.) as a model of the pseudostratified epithelium lining the respiratory tract. The epithelial cells are grown on porous membrane-bottomed cell culture inserts at an air-liquid interface, which results in differentiation of the cells to a highly polarized morphology. The apical surface is ciliated with a microvillous ultrastructure and the epithelium produces mucus (the presence of mucin has been confirmed by immunoblotting). The inserts have a diameter of 0.875 cm, providing a surface area of 0.6 cm^2. The cells are plated onto the inserts at the factory approximately three weeks before shipping. One “kit” consists of 24 units.
(§2) A. A “kit” of 24 EpiAirway™ units can routinely be employed for evaluating five different formulations, each of which is applied to quadruplicate wells. Each well is employed for determination of permeation kinetics (4 time points), transepithelial electrical resistance (TER). An additional set of wells is employed as controls, which are sham treated during determination of permeation kinetics, but are otherwise handled identically to the test sample-containing units for determinations of transepithelial resistance and viability.
(§3) B. In all experiments, the mucosal delivery formulation to be studied is applied to the apical surface of each unit in a volume of 100 μL, which is sufficient to cover the entire apical surface. An appropriate volume of the test formulation at the concentration applied to the apical surface (no more than 100 μL is generally needed) is set aside for subsequent determination of concentration of the active material by ELISA or other designated assay.
(§4) D. In order to minimize potential sources of error and avoid any formation of concentration gradients, the units are transferred from one 0.9 mL-containing well to another at each time point in the study. These transfers are made at the following time points, based on a zero time at which the 100 μL volume of test material was applied to the apical surface: 15 minutes, 30 minutes, 60 minutes, and 120 minutes.
(§5) F. At the completion of each time point, the medium is removed from the well from which each unit was transferred, and aliquotted into two tubes (one tube receives 700 μL and the other 200 μL) for determination of the concentration of permeated test material and, in the event that the test material is cytotoxic, for release of the cytosolic enzyme, lactate dehydrogenase, from the epithelium. These samples are kept in the refrigerator if the assays are to be conducted within 24 hours, or the samples are subaliquotted and kept frozen at −80° C. until thawed once for assays. Repeated freeze-thaw cycles are to be avoided.
(§6) EIA kit (p/n S-1178(EIAH6101) was purchased from Peninsula Laboratories Inc. (Division of BACHEM, San Carlos, Calif., 800-922-1516). 17×120 mm polypropylene conical tubes (p/n 352097, Falcon, Franklin Lakes, N.J.) were used for all sample preparations. Eight standards were used for PTH quantitation. The rest of the assay procedure was the same as the kit inserts.
(§7) The instant study was designed to evaluate the effect of PN159 itself or in combination with additional permeation enhancers on PTH permeation. The PN159 concentrations evaluated are 25, 50, and 100 μM. The additional permeation enhancers are 45 mg/ml M-β-CD, 1 mg/ml DDPC, and 1 mg/ml EDTA. Sorbitol was used as a tonicifier (146-190 mM) to adjust the osmolarity of formulations to 220 mOsm/kg. The formulation pH was fixed at 4.5. PTH was chosen as a model peptide in this example. 2 mg/ml PTH was combined with PN159 with or without additional permeation enhancers. The combination was tested using an in vitro epithelial tissue model to monitor PTH permeation, transepithelial electrical resistance (TER), and the cytotoxicity of the formulation by LDH assay.
(§8) The effect of PN159 on permeation of MC-4RA was evaluated in this study.

[2] = test system: EpiAirway™ Cell Membrane (mucosal epithelial cell layer); assay: as above
Experimental: as §1, §2, §3, §4, §5, §6, §7, §8

[3] = test system: EpiAirway™ Cell Membrane (mucosal epithelial cell layer); assay: LDH assay (cytotoxicity), in vitro epithelial tissue model; type: cell-based; conditions: Example 2, PTH study; PN159 25-100 μM
Experimental: Repeated freeze-thaw cycles are to be avoided.
The amount of cell death was assayed by measuring the loss of lactate dehydrogenase (LDH) from the cells using a CytoTox 96 Cytoxicity Assay Kit (Promega Corp., Madison, Wis.). Fifty microliters of sample was loaded into a 96-well assay plates. Fresh, cell-free culture medium was used as a blank. 50 μl of substrate solution was added to each well and the plates incubated for 30 minutes at room temperature in the dark. Following incubation, 50 μl of stop solution was added to each well and the plates read on an optical density plate reader at 490 nm.
(§9) The formulation pH was fixed at 4.5.

[4] = test system: EpiAirway™ Cell Membrane (mucosal epithelial cell layer); assay: Transepithelial electrical resistance (TER), EpiAirway in vitro epithelial tissue model; type: cell-based; conditions: Example 2, PTH formulation study, applied to apical side
Source text: One “kit” consists of 24 units.
A. Respiratory airway epithelial cells form tight junctions in vivo as well as in vitro, and thereby restrict the flow of solutes across the tissue. These junctions confer a transepithelial resistance of several hundred ohms×cm^2 in excised airway tissues. In the MatTek EpiAirway™ units, the transepithelial electrical resistance (TER) is reported by the manufacturer to be routinely around 1000 ohms×cm^2. […] The porous membrane-bottomed units without cells, conversely, provide only minimal transmembrane resistance (approximately 5-20 ohms×cm^2).
B. Accurate determinations of TER require that the electrodes of the ohmmeter be positioned over a significant surface area above and below the membrane, and that the distance of the electrodes from the membrane be reproducibly controlled. The method for TER determination recommended by MatTek and employed for all experiments herein employs an “EVOM”™ epithelial voltohmmeter and an “ENDOHM”™ tissue resistance measurement chamber from World Precision Instruments, Inc., Sarasota, Fla.
D. Determinations of TER are made with 1.5 mL of PBS in the chamber and 350 μL of PBS in the membrane-bottomed unit being measured. The top electrode is adjusted to a position just above the membrane of a unit containing no cells (but containing 350 μL of PBS) and then fixed to ensure reproducible positioning. The resistance of a cell-free unit is typically 5-20 ohms×cm^2 (“background resistance”).
G. The unit is gently blotted free of excess PBS on its exterior surface only before being placed into the chamber (containing a fresh 1.5 mL aliquot of PBS). An aliquot of 350 μL PBS is added to the unit before the top electrode is placed on the chamber and the TER is read on the EVOM meter.
I. The units are read in the following sequence: all sham-treated controls, followed by all formulation-treated samples, followed by a second TER reading of each of the sham-treated controls. All TER values are reported as a function of the surface area of the tissue.
TER was calculated as: TER=(R1−Rb)×A Where R1 is resistance of the insert with a membrane, Rb is the resistance of the blank insert, and A is the area of the membrane (0.6 cm^2). The effect of pharmaceutical formulations comprising intranasal delivery-enhancing agents, for example, permeabilizing peptides as measured by TER across the EpiAirway™ Cell Membrane (mucosal epithelial cell layer). Permeabilizing peptides are applied to the EpiAirway™ Cell Membrane at a concentration of 1.0 mM. A decrease in TER value relative to the control value (control=approximately 1000 ohms-cm^2; normalized to 100.) indicates a decrease in cell membrane resistance and an increase in mucosal epithelial cell permeability.
as §9

| Compound | Papp at 120 min, 40 mg/mL ([1]; [PN159] 0 μM, PYY3-36 1 mg/mL, pH was 5.0) | Papp at 120 min, 40 mg/mL ([1]; [PN159] 25 μM, PYY3-36 1 mg/mL pH 7.0) | Papp at 120 min, 40 mg/mL ([1]; [PN159] 50 μM) | Papp at 120 min, 40 mg/mL ([1]; [PN159] 100 μM, PYY3-36 1 mg/mL pH 7.0) | Papp at 120 min, 40 mg/ml ([1]; in the presence of 25 nM PN159 (as printed in text)) | Papp at 120 min, 40 mg/ml ([1]; in the presence of 50 nM PN159 (as printed in text)) | Papp at 120 min, 40 mg/ml ([1]; in the presence of 100 nM PN159 (as printed in text)) | Papp ([2]; [PN159] 0 μM, galantamine 40 mg/mL pH 5.0, calcitonin 1 mg/mL pH 3.5, PTH1-34 1 mg/mL pH 4.5, PYY3-36 1 mg/mL, pH was 5.0) | increase in Papp ([2]; drug in the presence of PN159 vs drug alone) | cytotoxicity (LDH) [3] | TER reduction (in words) [4] |
| --- | --- | --- | --- | --- | --- | --- | --- | --- | --- | --- | --- |
| COc1ccc2c3c1O[C@H]1C[C@@H](O)C=C[C@@]31CCN(C)C2 [Galantamine, galantamine, reference compound] | ~2.1 ×10⁻⁶ cm/s | 5.1 ×10⁻⁶ cm/s | 6.2 ×10⁻⁶ cm/s | 7.2 ×10⁻⁶ cm/s | 5.1 ×10⁻⁶ cm/s | 6.2 ×10⁻⁶ cm/s | 7.2 ×10⁻⁶ cm/s | 2.1 ×10⁻⁶ cm/s | 2.5-3.5 fold |  |  |
| Triton X [reference compound] |  |  |  |  |  |  |  |  |  | significant cytotoxicity | significant TER reduction |
